Reference: the supplement of paper PMC10307832

How the values were obtained:
Experiment in all cases: relative viability (nuclei count vs DMSO), 5 days (fraction); higher = more cells survive
[1] = compound: COc1cc(N2CCC(N3CCN(C)CC3)CC2)ccc1Nc1ncc(Cl)c(Nc2ccccc2S(=O)(=O)C(C)C)n1 [NVP-TAE684] + C[C@]1(O)C[C@@H](c2nc(-c3ccc4ccc(-c5ccccc5)nc4c3)c3c(N)nccn32)C1 [Linsitinib] (partner 1 µM)
Summary of the method: (§1)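 Nuclei were stained with Hoechst during a one-step fixation (final 0.05% Triton X-100, 1% formaldehyde, 1 ug/ml Hoechst) carried out 5 days after dosing, then counted on 4× images. The cells, lung cancer lines in 1536-well plates, had been dosed by pin tool the day after seeding with one drug alone or a fixed anchor-drug dose plus five library-drug doses (not always all listed) in √10 steps. Relative viability is the nuclei count in treated wells divided by that in vehicle wells, and each value is the median of duplicate plates.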

[2] = compound: COc1cc(N2CCC(N3CCN(C)CC3)CC2)ccc1Nc1ncc(Cl)c(Nc2ccccc2S(=O)(=O)C(C)C)n1 [NVP-TAE684] + COc1cccc2cc(-c3nc([C@H]4CC[C@H](C(=O)O)CC4)n4ncnc(N)c34)[nH]c12 [OSI-027] (partner 0.5 µM)
Summary of the method: as §1

[3] = compound: COc1cc(N2CCC(N3CCN(C)CC3)CC2)ccc1Nc1ncc(Cl)c(Nc2ccccc2S(=O)(=O)C(C)C)n1 [NVP-TAE684] + NC(=O)Nc1cc(-c2cccc(F)c2)sc1C(=O)N[C@H]1CCCNC1 [AZD7762] (partner 0.2 µM)
Summary of the method: as §1

[4] = compound: COc1cc2/c(=N/c3ccc(Br)cc3F)nc[nH]c2cc1OCC1CCN(C)CC1 [Vandetanib] + O=C(c1cc(Cc2n[nH]c(=O)c3ccccc23)ccc1F)N1CCN(C(=O)C2CC2)CC1 [Olaparib] (partner 8 µM)
Summary of the method: as §1

[5] = compound: C#Cc1cccc(Nc2ncnc3cc(OC)c(OCCCCCCC(=O)NO)cc23)c1 [CUDC-101] + CC1(C)CCC(c2ccc(Cl)cc2)=C(CN2CCN(c3ccc(C(=O)NS(=O)(=O)c4ccc(N[C@H](CCN5CCOCC5)CSc5ccccc5)c(S(=O)(=O)C(F)(F)F)c4)cc3)CC2)C1 [Navitoclax] (partner 0.5 µM)
Summary of the method: as §1

Cell Line | relative viability ([1]; first compound 0.2 µM) | relative viability ([1]; first compound 0.6325 µM) | relative viability ([1]; first compound 2 µM) | relative viability ([2]; first compound 0.2 µM) | relative viability ([2]; first compound 0.6325 µM) | relative viability ([2]; first compound 2 µM) | relative viability ([3]; first compound 0.2 µM) | relative viability ([3]; first compound 0.6325 µM) | relative viability ([3]; first compound 2 µM) | relative viability ([4]; first compound 0.02 µM) | relative viability ([4]; first compound 0.06325 µM) | relative viability ([4]; first compound 0.2 µM) | relative viability ([4]; first compound 0.6325 µM) | relative viability ([4]; first compound 2 µM) | relative viability ([5]; first compound 0.01 µM) | relative viability ([5]; first compound 0.03162 µM) | relative viability ([5]; first compound 0.1 µM) | relative viability ([5]; first compound 0.3162 µM) | relative viability ([5]; first compound 1 µM)
HCC-78 | 0.403 | 0.359 | 0.294 | 0.339 | 0.254 | 0.348 | 0.603 | 0.52 | 0.376 | 0.823 | 0.756 | 0.748 | 0.913 | 0.703 | 0.76 | 0.706 | 0.846 | 0.684 | 0.391
HCC-366 | 0.605 | 0.621 | 0.455 | 1.15 | 0.772 | 0.401 | 0.269 | 0.194 | 0.218 | 0.438 | 0.34 | 0.389 | 0.362 | 0.31 | 1.1 | 0.875 | 1.06 | 1.08 | 0.844
HCC-827 | 0.978 | 1.01 | 0.973 | 0.681 | 0.743 | 0.848 | 0.193 | 0.177 | 0.18 | 0.629 | 0.653 | 0.627 | 0.309 | 0.152 | 1.1 | 0.66 | 0.271 | 0.184 | 0.167
HOP-62 | 0.97 | 0.963 | 0.755 | 0.902 | 0.878 | – | 0.898 | 0.611 | 0.525 | 0.51 | 0.397 | 0.265 | 0.373 | 0.447 | 1.17 | 0.954 | 1.02 | 1.02 | 1.01
LC-2-ad | 0.842 | 0.771 | 0.218 | 0.804 | 0.673 | 0.317 | 0.808 | 0.818 | 0.427 | 0.673 | 0.711 | 0.695 | 0.792 | 0.714 | 0.462 | 0.475 | 0.49 | 0.517 | 0.196
LCLC-97TM1 | 0.136 | 0.189 | 0.136 | 0.52 | 0.473 | 0.14 | 0.283 | 0.2 | 0.194 | 0.374 | 0.377 | 0.357 | 0.352 | 0.343 | 0.416 | 0.304 | 0.593 | 0.377 | 0.306
LK-2 | 0.708 | 0.659 | 0.623 | 0.178 | 0.17 | 0.168 | 0.49 | 0.268 | 0.129 | 0.846 | 0.71 | 0.724 | 0.72 | 0.669 | 0.927 | 0.826 | 0.819 | 0.741 | 0.415
LOU-NH91 | 0.936 | 0.832 | 0.665 | 0.746 | 0.674 | 0.571 | 0.782 | 0.425 | 0.532 | 0.901 | 0.788 | 0.813 | 0.732 | 0.679 | 0.773 | 0.505 | 0.473 | 0.466 | 0.251
LU99A | 0.614 | 0.558 | 0.445 | 0.319 | 0.265 | 0.239 | 0.342 | 0.402 | 0.265 | 0.251 | 0.301 | 0.173 | 0.209 | 0.272 | 0.857 | 1.07 | 0.728 | 0.642 | 0.159
LXF-289 | 0.937 | 1.01 | 0.822 | 0.798 | 0.808 | 0.317 | 0.939 | 1.11 | 1.07 | 1.01 | 1.05 | 0.682 | 1 | 1 | 0.952 | 0.966 | 0.911 | 0.932 | 0.753
NCI-H23 | 0.533 | 0.584 | 0.509 | 0.666 | 0.544 | 0.236 | 0.24 | 0.209 | 0.151 | 0.346 | 0.275 | 0.328 | 0.343 | 0.335 | 0.801 | 0.796 | 0.817 | 0.849 | 0.791
NCI-H322M | 0.805 | 0.862 | 0.872 | 0.426 | 0.469 | 0.336 | 0.553 | 0.599 | 0.453 | 0.76 | 0.709 | 0.718 | 0.681 | 0.585 | 1.21 | 1.18 | 0.954 | 1.08 | 0.795
NCI-H441 | 0.521 | 0.627 | 0.472 | 0.581 | 0.626 | 0.379 | 1.12 | 1.04 | 0.598 | 0.498 | 0.576 | 0.646 | 0.658 | 0.616 | 0.875 | 0.57 | 0.545 | 0.795 | 0.392
NCI-H460 | 0.732 | 0.911 | 0.298 | 0.811 | 0.607 | 0.162 | 0.767 | 0.568 | 0.591 | 0.37 | 0.399 | 0.336 | 0.45 | 0.462 | 1.23 | 1.12 | 1.15 | 1.06 | 0.965
NCI-H596 | 1.06 | – | 0.688 | 0.903 | 0.689 | 0.509 | 1.03 | 0.988 | 0.839 | 0.616 | 0.62 | 0.726 | 0.655 | 0.705 | 1.06 | 0.825 | 0.942 | 0.938 | 0.866
NCI-H647 | 1.49 | 1.09 | 0.522 | 0.692 | 0.58 | 0.417 | 0.41 | 0.408 | 0.201 | 0.626 | 0.633 | 0.547 | 0.502 | 0.454 | 1.2 | 1.01 | 1.11 | 1.09 | 0.844
NCI-H727 | 0.331 | 0.284 | 0.216 | 0.68 | 0.411 | 0.372 | 0.588 | 0.58 | 0.344 | 0.727 | 0.68 | 0.662 | 0.739 | 0.621 | 0.377 | 0.413 | 0.417 | 0.304 | 0.269
NCI-H838 | 1.22 | 0.955 | 0.372 | 0.389 | 0.324 | 0.175 | – | 0.857 | 0.853 | 0.773 | 0.769 | 0.776 | 0.764 | 0.74 | 1.23 | 1.1 | 1.3 | 1.21 | 0.985
NCI-H1355 | 0.724 | 0.826 | 0.535 | 0.423 | 0.325 | 0.273 | 0.862 | 0.691 | 0.479 | 0.754 | 0.665 | 0.734 | 0.825 | 0.684 | 1.01 | 0.735 | 0.939 | 0.825 | 0.73
NCI-H1395 | 1.3 | 0.766 | 0.862 | 0.712 | 0.482 | 0.567 | 0.417 | 0.367 | 0.397 | 0.511 | 0.487 | 0.442 | 0.523 | 0.494 | 1.26 | 1.13 | 1.46 | 1.75 | 0.991
NCI-H1437 | 1.01 | 1.02 | 0.545 | 0.79 | – | 0.203 | 1.21 | 1.09 | 1.07 | 0.588 | 0.667 | 0.643 | 0.615 | 0.612 | 1.13 | 1.07 | 1.22 | 1.16 | 0.931
NCI-H1651 | 1.02 | 0.98 | 0.935 | 0.692 | 0.79 | 0.295 | 0.423 | 0.48 | 0.401 | 0.176 | 0.179 | 0.17 | 0.165 | 0.19 | 1.13 | 0.938 | 1.22 | 1.04 | 0.887
NCI-H1666 | 0.828 | 0.605 | 0.591 | 0.901 | 0.767 | 0.641 | 0.898 | 0.889 | 0.652 | 0.787 | 0.749 | 0.812 | 0.758 | 0.754 | 1.07 | 0.796 | 1 | 1.04 | 0.548
NCI-H1734 | 0.849 | 0.92 | 0.818 | 0.679 | 0.518 | 0.387 | 0.481 | 0.443 | 0.432 | 0.58 | 0.576 | 0.679 | 0.612 | 0.572 | 0.959 | 0.82 | 0.917 | 0.911 | 0.501
NCI-H1755 | 1.05 | 1.05 | – | 0.636 | 0.672 | 0.453 | 0.434 | 0.427 | 0.328 | 0.917 | 0.863 | 0.848 | 0.822 | 0.863 | 0.984 | 1.01 | 0.995 | 1.02 | 0.951
NCI-H1792 | 0.451 | 0.509 | 0.504 | 0.779 | 0.731 | 0.818 | 0.678 | 0.733 | 0.394 | 0.425 | 0.442 | 0.469 | 0.66 | 0.409 | 0.586 | 0.636 | 0.56 | 0.625 | 0.582
NCI-H1793 | 0.734 | 0.857 | 0.9 | 0.267 | 0.274 | 0.204 | 0.479 | 0.247 | 0.169 | 0.86 | 0.803 | 0.74 | 0.658 | 0.577 | 0.426 | 0.319 | 0.417 | 0.406 | 0.35
NCI-H1915 | 1.16 | 1.18 | 1.01 | 0.678 | 0.668 | 0.611 | 0.699 | 0.742 | 0.595 | 0.244 | 0.227 | 0.265 | 0.231 | 0.24 | 0.796 | 0.793 | 0.804 | 0.743 | 0.743
